Experimental data taken from US20230312643A1, “PEPTIDE DERIVATIVE WITH COLLAGENASE INHIBITORY ACTIVITY, AND USE THEREOF” (SUNMARINE BIOTECH, priority 2020, published 2023).

Columns and labels:
MMP1 protein (pdb1cgl) = target: T1, MMP1 protein (pdb1cgl) (Homo sapiens, UniProt P03956); assay: Molecular docking (SYBYL-X 2.1.1, Surflex-Dock 2.7) of binding affinity to collagenase; settings: from Surflex-Dock total score
T1 sequence (P03956 101-269 limits assumed): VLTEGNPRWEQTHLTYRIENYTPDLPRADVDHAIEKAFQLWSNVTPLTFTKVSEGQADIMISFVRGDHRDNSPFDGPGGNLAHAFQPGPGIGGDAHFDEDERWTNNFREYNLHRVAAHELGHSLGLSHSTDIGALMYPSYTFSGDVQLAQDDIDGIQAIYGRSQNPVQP
Description: Molecular modeling was conducted through a computer simulation program.
Target structure: MMP1 protein (pdb1cgl)
Software: SYBYL-X 2.1.1, Surflex-Dock2.7
Through a computer simulation program, a study was conducted on how to promote collagenase enzyme inhibitory activity and percutaneous absorption during peptide modification.
Total score is a value indicating the degree of binding affinity of a docked structure including a crash and a polar interaction in the unit of pKd, and the larger the value, the higher the binding affinity. And, the similarity is a value comparing the similarity with the structure already bonded to the 1cgl, and means that the closer to 1, the more similar. The result of such docking means that the addition of an appropriate modification residue through a docking simulation of computer chemistry may increase the binding affinity and similarity.
However, when compared with the overall consensus score, a binding affinity similar to or higher than that of pdb1cgl_ligand may be expected, particularly in the modified GPN and PGN, too.

[1] = HS68 cytotoxicity test (MTS cell viability); format: cell-based; settings: human, HS68 cells (skin fibroblasts)
Description: Skin fibroblast HS68 cells were used. The medium was DMEM high glucose (SH30243.01, HyClone™, Logan, UT, USA) medium containing 10% fetal bovine serum (FBS, Lonza, Valais, Switzerland) medium. The cell lines were cultured in an incubator adjusted to 95% humidity, 5% CO2 and 37° C., and at this time, a medium antibiotic (Penicillin streptomycin, Gibco, Calif., USA) was used to suppress contamination or proliferation of microorganisms.
Cell viability was measured using MTS (CellTiter 96® AQueous One Solution Cell Proliferation Assay, Promega, USA) reagent. The cells were divided at a concentration of 1×10^4 cells/well in a 96-well plate and then stabilized for 24 hours in an incubator controlled to 95% humidity, 5% CO2 and 37° C. After that, the samples were treated for each concentration and cultured for 24 hours in an incubator controlled to 95% j humidity, 5% CO2 and 37° C. After the medium was removed, 9 ml of medium (DMEM high, free FBS) was added to 1 ml of the reagent and diluted, and then 100 ul of the diluted solution was treated per well. After the reaction at 37° C. for 60 minutes, absorbance was measured at 490 nm with microplate reader (Molecular Devices, VersaMax ELISA Microplate Reader, USA). Cell viability was represented by absorbance of a sample-treated group compared to a control group not treated with the sample.

NC(=O)C[C@H](NC(=O)CNC(=O)[C@@H]1CCCN1)C(=O)O [PGN, Pro-Gly-Asn, reference compound]
binding affinity compared to 1cgl ligand (MMP1 protein (pdb1cgl)): ~61.5% | viability at 24 h, 1 µg/mL ([1]; HS68, 1 μg/ml): 104 ± 3.9% | viability at 24 h, 10 µg/mL ([1]; HS68, 10 μg/ml): 117 ± 11.5% | viability at 24 h, 50 µg/mL ([1]; HS68, 50 μg/ml): 128 ± 2.2% | viability at 24 h, 100 µg/mL ([1]; HS68, 100 μg/ml): 130.1 ± 0.1%
